Data: US20240075243A1, “REUSABLE HYDROPHILIC URINARY CATHETER ASSEMBLY” (WELLSPECT AB, priority 2021, published 2024)

System: E. coli
Experiment: Disinfection effect of hydration liquids on catheters immersed in E. coli suspension
Type: cell-based
Conditions: 4 hours immersion, incubated at 37 deg. C for 19.5 hours
Source text: In another line of experiments, hydration liquids with different types of disinfection mediums were used, and evaluated in respect of the disinfection effect. The hydration liquid comprised 5 wt % of PVP K30, and various disinfection mediums. As comparative examples, a hydration liquid with PVP K30 but without any disinfection medium was used, as well as a hydration liquid only comprising water. For the tests, catheters were first activated in a hydration liquid containing a disinfectant. Thereafter, the catheters were immersed in an E. coli suspension. The catheters were then rinsed in plain water, before again being immersed in the same hydration liquid used for the activation for 4 hours. Thereafter, the catheters were transferred into a growth medium and incubated at 37 deg. C for 19.5 hours. After this, it was determined whether, or not, bacterial growth had occurred during incubation.

With OCl [Sodium hypochlorite, sodium hypochlorite] as the molecule, how does the Result after incubation (disinfection medium 0.02 wt % in hydration liquid with 5 wt % PVP K30) read?
The Result after incubation was “No growth”.

For O=[N+]([O-])[O-].[Ag+] [Silver nitrate, silver nitrate], which Result after incubation (disinfection medium 0.05 wt % in hydration liquid with 5 wt % PVP K30) is on record?
The Result after incubation was “No growth”.

What about the Result after incubation (disinfection medium 0.2 wt % in hydration liquid with 5 wt % PVP K30) of the same molecule?
Its Result after incubation is “No growth”.

Oc1cc(Cl)ccc1Oc1ccc(Cl)cc1Cl [Triclosan, triclosan] was tested. Which Result after incubation (disinfection medium 0.075 wt % in hydration liquid with 5 wt % PVP K30) did it give?
The Result after incubation was “No growth”.

And the Result after incubation (disinfection medium 0.3 wt % in hydration liquid with 5 wt % PVP K30)?
The Result after incubation was “No growth”.

Which Result after incubation (disinfection medium 0.025 wt % in hydration liquid with 5 wt % PVP K30) does the source give for benzalkonium chloride here?
The Result after incubation was “No growth”.

And the Result after incubation (disinfection medium 0.1 wt % in hydration liquid with 5 wt % PVP K30)?
Its Result after incubation is “No growth”.
